These results are taken from US20220098203A1 (priority 2018, published 2022).

Each structure is given as a SMILES string. Like-named read-outs stand apart in the source and are kept apart here.

In one test the target is T1, MAT2A homodimer (Homo sapiens, UniProt P31153).
T1 construct: inferred from the Ni sepharose purification and imidazole elution; made in house; host or cells: SF9 insect cells, recombinant baculovirus (Bac to Bac, pFASTBAC1)
As to the kind of experiment: MAT2A biochemical assay (liberated phosphate, PiColorLock Gold). The following applies: Table 5a; MAT2A biochemical assay; read-out: Enzyme Inhibition. The procedure, abridged: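 Baculovirus/Sf9-expressed, Ni-purified MAT2A homodimer preincubated with compound 60 min at 25 °C, then reacted 60 min at 25 °C with substrate mix of 500 μM ATP and 400 μM L-methionine, pH 7.0 (mix, not final levels). Phosphate released with SAM measured by PiColorLock Gold against phosphate standard curve.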

Test [1] relates to SAM in HCT116 MTAP-deleted cells. As to the kind of experiment: Cellular assay of target engagement (SAM), LC-MS/MS. Type of test: cell-based, human. The following applies: 72 h, read-out: Cell 72 h SAM Inhibition (MTAP −/−). The procedure, abridged: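 HCT116 cells with MTAP deleted were treated with compound for 72 h at 37°C/5% CO2. After quenching lysis in cold 80% methanol with 1 M acetic acid, SAM was quantified by LC-MS/MS against a d3-SAM internal standard.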

In the next test the test system is HCT116 MTAP-/-. Kind of test: Inhibition of cellular proliferation (Cell Titer Glo), HCT116 MTAP-/-. Type of test: cell-based, human. The note with it: 4 days, read-out: 4 Day Relative Growth Inhibition (MTAP −/−). In outline:
(§1)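 Isogenic HCT116 MTAP+/+ and MTAP−/− cells were plated, treated with MAT2A inhibitor after 24 h, and incubated 4 days at 37 °C. Proliferation was read by CellTiter-Glo ATP luminescence, blank-subtracted and normalized to 0.2% DMSO control.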
(ATP-based viability assays read luminescence as a measure of living cells.)

The test system of a further test is HCT116 MTAP+/+. As to the kind of experiment: Inhibition of cellular proliferation (Cell Titer Glo), HCT116 MTAP+/+. Type of test: cell-based. The note with it: Homo sapiens, HCT-116, 96 h, Table 5a, 4 days, read-out: 4 Day Relative Growth Inhibition (MTAP +/+). In outline:
as §1

Where [2] appears, read: Homo sapiens, HCT-116, Table 5a.
Where [3] appears, read: Homo sapiens, HCT-116, 96 h, Table 5a.
The mark [4] stands for this setting: Table 6, select pairs of compounds.

T1 sequence (P31153 whole entry): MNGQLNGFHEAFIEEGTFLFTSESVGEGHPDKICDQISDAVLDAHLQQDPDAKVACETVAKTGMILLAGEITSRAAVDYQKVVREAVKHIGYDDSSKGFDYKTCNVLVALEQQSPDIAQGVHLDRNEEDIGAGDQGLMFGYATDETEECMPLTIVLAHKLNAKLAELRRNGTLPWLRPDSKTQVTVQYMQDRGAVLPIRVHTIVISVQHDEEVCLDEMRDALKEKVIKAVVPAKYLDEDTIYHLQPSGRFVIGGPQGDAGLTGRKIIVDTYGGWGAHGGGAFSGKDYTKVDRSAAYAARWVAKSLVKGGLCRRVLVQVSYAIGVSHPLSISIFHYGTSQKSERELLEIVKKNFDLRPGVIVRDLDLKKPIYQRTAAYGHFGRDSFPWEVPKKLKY

As to `COC1CC=C(N2C(=O)N(c3ccc4nn(C)cc4c3)Cc3ccc(OCC(F)F)nc32)CC1` (centres unmarked) [Example 178, 7-(2,2-difluoroethoxy)-1-(4-methoxycyclohex-1-en-1-yl)-3-(2-methyl-2H-indazol-5-yl)-3,4-dihydropyrido[2,3-d]pyrimidin-2(1H)-one], the IC50 is less than 100 nM on MAT2A homodimer, less than 100 nM in test [1] (setting [2]), less than 100 nM with HCT116 MTAP-/- (setting [3]) and 100 to 1000 nM in the test with HCT116 MTAP+/+.

As for `Cn1cc2cc(N3Cc4ccc(OCC(F)F)nc4N(c4ccc5[nH]nnc5c4)C3=O)ccc2n1` [Example 179, 1-(1H-benzo[d][1,2,3]triazol-5-yl)-7-(2,2-difluoroethoxy)-3-(2-methyl-2H-indazol-5-yl)-3,4-dihydropyrido[2,3-d]pyrimidin-2(1H)-one], the IC50 on MAT2A homodimer is less than 100 nM; in test [1] (setting [2]) it was more than 1000 nM; in the test on HCT116 MTAP-/- (setting [3]), more than 1000 nM; with HCT116 MTAP+/+ it was more than 1000 nM.

In the case of `COc1ccc(N2C(=O)N(c3ccc4nn(C)cc4c3)Cc3ncc(OCC(F)F)nc32)cc1` [Example 180, 7-(2,2-difluoroethoxy)-1-(4-methoxyphenyl)-3-(2-methyl-2H-indazol-5-yl)-3,4-dihydropteridin-2(1H)-one], the IC50 on MAT2A homodimer is less than 100 nM; in test [1] (setting [2]) it was less than 100 nM; in the test on HCT116 MTAP-/- (setting [3]), less than 100 nM; in the test with HCT116 MTAP+/+, 100 to 1000 nM.

Consider `[2H]C([2H])([2H])Oc1ccc(N2C(=O)N(c3ccc4nn(C)cc4c3)Cc3ncc(OCC(F)F)nc32)cc1` [Example 181, 7-(2,2-difluoroethoxy)-1-(4-(methoxy-d3)phenyl)-3-(2-methyl-2H-indazol-5-yl)-3,4-dihydropteridin-2(1H)-one], for which the IC50 was less than 100 nM on MAT2A homodimer, less than 100 nM in test [1] (setting [2]), less than 100 nM in the test on HCT116 MTAP-/- (setting [3]) and more than 1000 nM in the test with HCT116 MTAP+/+.

For the molecule `Cn1cc2cc(N3Cc4ncc(OCC(F)F)nc4N(c4ccc(OC(F)F)cc4)C3=O)ccc2n1` [Example 182, 7-(2,2-difluoroethoxy)-1-(4-(difluoromethoxy)phenyl)-3-(2-methyl-2H-indazol-5-yl)-3,4-dihydropteridin-2(1H)-one], the IC50 at MAT2A homodimer is less than 100 nM; in test [1] (setting [2]) it was less than 100 nM; in the test on HCT116 MTAP-/- (setting [3]), 100 to 1000 nM; with HCT116 MTAP+/+ it was 100 to 1000 nM.

With `CCOc1cnc2c(n1)N(c1ccc(OC(F)F)cc1)C(=O)N(c1ccc3nn(C)cc3c1)C2` [Example 183, 1-(4-(difluoromethoxy)phenyl)-7-ethoxy-3-(2-methyl-2H-indazol-5-yl)-3,4-dihydropteridin-2(1H)-one], the IC50 on MAT2A homodimer was less than 100 nM; in test [1] (setting [2]) it was less than 100 nM; in the test with HCT116 MTAP-/- (setting [3]), 100 to 1000 nM; with HCT116 MTAP+/+, more than 1000 nM.

`Cn1cc2cc(N3Cc4cc(F)c(OCC(F)F)nc4N(c4ccc(OC(F)F)cc4)C3=O)ccc2n1` [Example 184]: the IC50 on MAT2A homodimer was less than 100 nM; in test [1] (setting [2]), 100 to 1000 nM; in the test on HCT116 MTAP-/- (setting [3]), 100 to 1000 nM; with HCT116 MTAP+/+, more than 1000 nM.

For `[2H]C([2H])([2H])Oc1ccc(N2C(=O)N(c3ccc4nn(C)cc4c3)Cc3c(C)cc(OCC(F)F)nc32)cc1` [Example 185, 7-(2,2-difluoroethoxy)-1-(4-methoxy-d3-phenyl)-5-methyl-3-(2-methyl-2H-indazol-5-yl)-3,4-dihydropyrido[2,3-d]pyrimidin-2(1H)-one], the IC50 is less than 100 nM at MAT2A homodimer, less than 100 nM in test [1] (setting [2]), less than 100 nM in the test on HCT116 MTAP-/- (setting [3]) and 100 to 1000 nM in the test with HCT116 MTAP+/+.

As to `CCOc1cnc2c(n1)N(c1ccc(OC(F)F)cc1)C(=O)N(c1ccc(OC)cc1)C2` [Example 186, 1-(4-(difluoromethoxy)phenyl)-7-ethoxy-3-(4-methoxyphenyl)-3,4-dihydropteridin-2(1H)-one], the IC50 on MAT2A homodimer was less than 100 nM; in test [1] (setting [2]) it was 100 to 1000 nM; in the test on HCT116 MTAP-/- (setting [3]) it was less than 100 nM; in the test with HCT116 MTAP+/+, 100 to 1000 nM.

As to `CCOc1cc2c(cn1)CN(c1ccc3nn(C)cc3c1)C(=O)N2c1ccc(OC(F)F)cc1` [Example 187, 1-(4-(difluoromethoxy)phenyl)-7-ethoxy-3-(2-methyl-2H-indazol-5-yl)-3,4-dihydropyrido[4,3-d]pyrimidin-2(1H)-one], the IC50 on MAT2A homodimer is 100 to 1000 nM; in test [1] (setting [2]), more than 1000 nM; in the test on HCT116 MTAP-/- (setting [3]), more than 1000 nM; in the test on HCT116 MTAP+/+, more than 1000 nM.

`COc1ccc(N2Cc3cnc(NCC(F)F)nc3N(c3ccc(-c4nc[nH]n4)cc3)C2=O)cc1` [Example 188, 1-(4-(1H-1,2,4-triazol-3-yl)phenyl)-7-((2,2-difluoroethyl)amino)-3-(4-methoxyphenyl)-3,4-dihydropyrimido[4,5-d]pyrimidin-2(1H)-one]: the IC50 is less than 100 nM at MAT2A homodimer, 100 to 1000 nM in test [1] (setting [2]), 100 to 1000 nM with HCT116 MTAP-/- (setting [3]) and more than 1000 nM in the test with HCT116 MTAP+/+.

As for `CCNc1ncc2c(n1)N(c1ccc(OC(F)F)cc1)C(=O)N(c1ccc3nn(C)cc3c1)C2` [Example 190, 1-(4-(difluoromethoxy)phenyl)-7-(ethylamino)-3-(2-methyl-2H-indazol-5-yl)-3,4-dihydropyrimido[4,5-d]pyrimidin-2(1H)-one], the IC50 at MAT2A homodimer was less than 100 nM; in test [1] (setting [2]), 100 to 1000 nM; in test [1] (setting [4]), 100 to 1000 nM; in the test on HCT116 MTAP-/- (setting [3]), 100 to 1000 nM; in the test on HCT116 MTAP-/- (setting [4]) it was 100 to 1000 nM; in the test on HCT116 MTAP+/+, more than 1000 nM.

For the molecule `COc1ccc(N2Cc3cnc(NCC(F)(F)F)nc3N(c3ccc(-c4nc[nH]n4)cc3)C2=O)cc1` [Example 193, 1-(4-(1H-1,2,4-triazol-3-yl)phenyl)-3-(4-methoxyphenyl)-7-((2,2,2-trifluoroethyl)amino)-3,4-dihydropyrimido[4,5-d]pyrimidin-2(1H)-one], the IC50 is less than 100 nM at MAT2A homodimer, less than 100 nM in test [1] (setting [2]), 100 to 1000 nM with HCT116 MTAP-/- (setting [3]) and more than 1000 nM in the test on HCT116 MTAP+/+.

Regarding `COc1ccc(N2Cc3cnc(NCC(F)(F)F)nc3N(c3ccc(-c4c[nH]cn4)cc3)C2=O)cc1` [Example 196, 1-(4-(1H-imidazol-4-yl)phenyl)-3-(4-methoxyphenyl)-7-((2,2,2-trifluoroethyl)amino)-3,4-dihydropyrimido[4,5-d]pyrimidin-2(1H)-one], the IC50 on MAT2A homodimer was less than 100 nM; in test [1] (setting [2]), 100 to 1000 nM; in the test with HCT116 MTAP-/- (setting [3]) it was 100 to 1000 nM; in the test with HCT116 MTAP+/+, more than 1000 nM.

`COc1ccc(N2Cc3cnc(NCC(F)(F)F)nc3N(c3ccc(CO)cc3)C2=O)cc1` [Example 202, 1-(4-(hydroxymethyl)phenyl)-3-(4-methoxyphenyl)-7-((2,2,2-trifluoroethyl)amino)-3,4-dihydropyrimido[4,5-d]pyrimidin-2(1H)-one]: the IC50 at MAT2A homodimer is 100 to 1000 nM; in test [1] (setting [2]), 100 to 1000 nM; with HCT116 MTAP-/- (setting [3]), 100 to 1000 nM; with HCT116 MTAP+/+, more than 1000 nM.

In the case of `COc1ccc(N2Cc3cnc(NCC(F)(F)F)nc3N(c3ccc(CCO)cc3)C2=O)cc1` [Example 206, 1-(4-(2-hydroxyethyl)phenyl)-3-(4-methoxyphenyl)-7-((2,2,2-trifluoroethyl)amino)-3,4-dihydropyrimido[4,5-d]pyrimidin-2(1H)-one], the IC50 is less than 100 nM on MAT2A homodimer, 100 to 1000 nM in test [1] (setting [2]), 100 to 1000 nM in the test on HCT116 MTAP-/- (setting [3]) and more than 1000 nM in the test on HCT116 MTAP+/+.

As for `O=C1N(c2ccc3c(c2)OCCO3)Cc2cnc(NCC(F)(F)F)nc2N1c1ccc(-c2nc[nH]n2)cc1` [Example 214, 1-(4-(1H-1,2,4-triazol-3-yl)phenyl)-3-(2,3-dihydrobenzo[b][1,4]dioxin-6-yl)-7-((2,2,2-trifluoroethyl)amino)-3,4-dihydropyrimido[4,5-d]pyrimidin-2(1H)-one], the IC50 at MAT2A homodimer is less than 100 nM; in test [1] (setting [2]), less than 100 nM; with HCT116 MTAP-/- (setting [3]), 100 to 1000 nM; in the test on HCT116 MTAP+/+, more than 1000 nM.

In the case of `[2H]C([2H])([2H])Oc1ccc(N2Cc3cnc(NCC(F)(F)F)nc3N(c3ccc(-c4nc[nH]n4)cc3)C2=O)cc1` [Example 215, 1-(4-(1H-1,2,4-triazol-3-yl)phenyl)-3-(4-(methoxy-d3)phenyl)-7-((2,2,2-trifluoroethyl)amino)-3,4-dihydropyrimido[4,5-d]pyrimidin-2(1H)-one], the IC50 is less than 100 nM at MAT2A homodimer, less than 100 nM in test [1] (setting [2]), 100 to 1000 nM in the test with HCT116 MTAP-/- (setting [3]) and more than 1000 nM in the test on HCT116 MTAP+/+.

In the case of `Cn1cc2cc(N3Cc4cnc(NCC(F)(F)F)nc4N(c4ccc(OC(F)F)cc4)C3=O)ccc2n1` [Example 216, 1-(4-(difluoromethoxy)phenyl)-3-(2-methyl-2H-indazol-5-yl)-7-((2,2,2-trifluoroethyl)amino)-3,4-dihydropyrimido[4,5-d]pyrimidin-2(1H)-one], the IC50 on MAT2A homodimer is less than 100 nM; in test [1] (setting [2]) it was less than 100 nM; in test [1] (setting [4]), less than 100 nM; with HCT116 MTAP-/- (setting [3]) it was less than 100 nM; with HCT116 MTAP-/- (setting [4]) it was less than 100 nM; with HCT116 MTAP+/+, more than 1000 nM.
